Measured values published in US20240246984A1, “HETEROCYCLIC JAK INHIBITOR” (BEIJING INNOCARE PHARMA TECH CO., LTD., priority 2020, published 2024).

Assays:
[1] = tested on: IL-12-induced IFN-γ secretion in NK92 cells; test: Inhibition of IL-12-induced IFN-γ secretion in NK92 cells (ELISA); format: cell-based; settings: Homo sapiens, IL-12 stimulation, 24 hours, read-out: IC50 (NK92IL12/IFN-γ)
Procedure: The effect of the compounds of the present invention on IFN-γ secretion in IL-12-induced NK92 cells was evaluated by an enzyme-linked immunosorbent assay (ELISA).
The assay principle was generally described below: IL-12R was mainly expressed in activated T-cells, NK cells (NK92 was an NK cell line), DC cells, and B-cells. When binding to IL-12, it activated the JAK2/TYK2 signal transduction pathway within NK cells and activated T lymphocytes, thereby inducing secretion of IFN-γ.
The compound was dissolved to 2.5 mM in DMSO, followed by a serial 4-fold dilution with DMSO to a minimum concentration of 0.31 μM. Each concentration was further diluted 50-fold with an FBS-free MEMα medium (Thermofisher. 12561-056).
NK92 cells (Nanjing Cobioer, CBP60980) were cultured in a complete MEMα medium containing 12.5% FBS (Ausbian, VS500T), 12.5% horse serum (Thermofisher, 16050-122), 0.02 mM folic acid (Sigma, F8758), 0.2 mM inositol (Sigma, 17850), 0.55 mM β-mercaptoethanol (Thermofish, 21985-023), 200 U/mL IL-2 (R&D Systems, 202-1L), and 100 U/mL penicillin-streptomycin mixed liquor (ThermoFisher, 15140122). When covering 80-90% of the culture container surface, the cells were dispersed and plated on a 96-well plate (ThermoFisher, 167425) with 100,000 cells per well (80 μL of the complete MEMα medium without IL-2). The 96-well plate was then incubated overnight in a 37° C., 5% CO2 incubator.
After overnight incubation, 10 μL of the compound and 10 μL of 50 ng/ml IL-12 (R &D Systems, 219-1L) were added to each well and mixed gently, and the 96-well plate was incubated in the 37° C., 5% CO2 incubator for additional 24 hours. The plate was centrifuged at 800 rpm for 10 minutes at room temperature and 50 μL of the supernatant from each well was transferred to another 96-well plate (Sigma, CLS3695) coated with anti-IFN-γ antibody. The amount of IFN-γ secretion was detected following the instruction from the Human IFN-γ DuoSet ELISA assay kit (R & D Systems, DY285B). In this assay, the group in which IL-12 and the test compound were replaced with the MEMα medium was the non-stimulated control group (100% inhibition), and the group with IL-12 and 0.2% DMSO was the stimulated control group (0% inhibition). The compound inhibition curve was plotted using XLfit software and the IC50 of its inhibition was calculated.

[2] = target: human recombinant JAK2 protein (Homo sapiens, UniProt O60674); test: JAK2 activity inhibition assay (HTRF kinase detection); format: biochemical; settings: 2.5 μM ATP substrate solution
Procedure: The effect of the compounds of the present invention on the activity of JAK2 was assessed by using an in vitro kinase detection assay.
The enzymatic activity of JAK2 was assessed by detecting the substrate phosphorylation level in a kinase reaction with a homogeneous time-resolved fluorescence (HTRF) kinase detection kit (Cisbio, 62TK0PEC). A reaction buffer contained an enzyme buffer (1×), 5 mM MgCl2, 1 mM DTT and 0.01% Brij35 from the kit; a human recombinant JAK2 protein (Carna Biosciences, 08-045) was diluted to a kinase reaction solution of 0.15 ng/μL with the reaction buffer; a substrate reaction solution contained 2.5 μM ATP and a biotin-labeled tyrosine kinase substrate diluted to 0.25 μM with the reaction buffer; a detection buffer contained 0.1 ng/μL Eu^3+ labeled cage antibody (Cisbio, 61T66KLB) and 12.5 nM streptavidin-labeled XL665 (Cisbio, 610SAXLB) in the reaction buffer; the compound was dissolved to 10 μM in DMSO, followed by a serial 4-fold dilution with DMSO to a minimum concentration of 0.061 nM. Each concentration was further diluted 40-fold with the reaction buffer. To a 384-well assay plate (Corning, 3674) were added 4 μL of the compound solutions having a series of concentrations and 2 μL of JAK2 kinase reaction solutions. After being mixed evenly, the mixtures were incubated at room temperature for 15 minutes, and then 4 μL of the substrate reaction solutions were added. The reaction mixtures were incubated at room temperature for 30 minutes. Then the reaction mixtures were added with 10 μL of detection solutions, mixed evenly, and allowed to stand at room temperature for 30 minutes. An Envision plate reader (Perkin Elmer) was then used to measure the progress of the reaction at wavelengths of 620 nm and 665 nm. The signal value (absorbance at 665 nm/absorbance at 620 nm) was positively correlated with the degree of substrate phosphorylation, therefore the kinase activity of JAK2 was detected. In this assay, the group without JAK2 kinase protein was the 100% inhibition group, and the group with JAK2 kinase protein but without the test compound was the 0% inhibition group. The compound inhibition curve was plotted using XLfit software and the IC50 of its inhibition was calculated.

[3] = target: human recombinant TYK2 protein (Homo sapiens, UniProt P29597); test: TYK2 activity inhibition assay (HTRF kinase detection); format: biochemical; settings: 11.25 μM ATP substrate solution
Procedure: The effect of the compounds of the present invention on the activity of TYK2 was assessed by using an in vitro kinase detection assay.
The enzymatic activity of TYK2 was assessed by detecting the substrate phosphorylation level in a kinase reaction with a homogeneous time-resolved fluorescence (HTRF) kinase detection kit (Cisbio, 62TK0PEC). A reaction buffer contained an enzyme buffer (1×), 5 mM MgCl2, 1 mM DTT and 0.01% Brij35 from the kit; a human recombinant TYK2 protein (Carna Biosciences, 08-147) was diluted to a kinase reaction solution of 0.25 ng/μL with the reaction buffer; a substrate reaction solution contained 11.25 μM ATP and a biotin-labeled tyrosine kinase substrate diluted to 0.5 μM with the reaction buffer; a detection buffer contained 0.1 ng/μL Eu^3+ labeled cage antibody (Cisbio, 61T66KLB) and 25 nM streptavidin-labeled XL665 (Cisbio, 610SAXLB) in the reaction buffer; the compound was dissolved to 10 μM in DMSO, followed by a serial 4-fold dilution with DMSO to a minimum concentration of 0.061 nM. Each concentration was further diluted 40-fold with the reaction buffer. To a 384-well assay plate (Corning, 3674) were added 4 μL of the compound solutions having a series of concentrations and 2 μL of kinase reaction solutions. After being mixed evenly, the mixtures were incubated at room temperature for 15 minutes, and then 4 μL of the substrate reaction solutions were added. The reaction mixtures were incubated at room temperature for 40 minutes. Then the reaction mixtures were added with 10 μL of detection solutions, mixed evenly, and allowed to stand at room temperature for 30 minutes. An Envision plate reader (Perkin Elmer) was then used to measure the progress of the reaction at wavelengths of 620 nm and 665 nm. The signal value (absorbance at 665 nm/absorbance at 620 nm) was positively correlated with the degree of substrate phosphorylation, therefore the kinase activity of TYK2 was detected. In this assay, the group without TYK2 kinase protein was the 100% inhibition group, and the group with TYK2 kinase protein but without the test compound was the 0% inhibition group. The compound inhibition curve was plotted using XLfit software and the IC50 of its inhibition was calculated.

Compound	IC50 [1] [nM]	IC50 [2] [nM]	IC50 [3] [nM]
O=C1NCCn2c(-c3c(F)cccc3F)nc(Nc3ccc(C(=O)N4CCOCC4)cc3)c21 [Compound 2, 3-(2,6-difluorophenyl)-1-((4-(morpholine-4-carbonyl)phenyl)amino)-6,7-dihydroimidazo[1,5-a]pyrazin-8(5H)-one]	95		
Cn1cc(Nc2nc(-c3c(F)cccc3F)n3c2C(=O)NCC3)cn1 [Compound 5, 3-(2,6-difluorophenyl)-1-((1-methyl-1H-pyrazol-4-yl)amino)-6,7-dihydroimidazo[1,5-a]pyrazin-8(5H)-one]	1310	27	4.8
Cn1ccc(Nc2nc(-c3c(F)cccc3F)n3cc[nH]c(=O)c23)n1 [Compound 7, 3-(2,6-difluorophenyl)-1-((1-methyl-1H-pyrazol-3-yl)amino)imidazo[1,5-a]pyrazin-8(7H)-one]		62	20
Cn1ccc(Nc2nc(-c3c(F)cccc3F)n3c2C(=O)NCC3)n1 [Compound 8, 3-(2,6-difluorophenyl)-1-((1-methyl-1H-pyrazol-3-yl)amino)-6,7-dihydroimidazo[1,5-a]pyrazin-8(5H)-one]			220
O=c1[nH]ccn2c(-c3c(F)cccc3F)nc(Nc3ccc(N4CCOCC4)cn3)c12 [Compound 9, 3-(2,6-difluorophenyl)-1-((5-morpholinopyridin-2-yl)amino)imidazo[1,5-a]pyrazin-8(7H)-one]		13	7
CC(=O)N1CCC(c2nc(Nc3ccc(C(=O)N4CCOCC4)cc3)c3c(=O)[nH]ccn23)CC1 [Compound 19, 3-(1-acetylpiperidin-4-yl)-1-((4-(morpholine-4-carbonyl)phenyl)amino)imidazo[1,5-a]pyrazin-8(7H)-one]		14	23
O=C(c1ccc(Nc2nc(C3CCNCC3)n3cc[nH]c(=O)c23)cc1)N1CCOCC1 [Compound 20, 1-((4-(morpholine-4-carbonyl)phenyl)amino)-3-(piperidin-4-yl)imidazo[1,5-a]pyrazin-8(7H)-one]		53	37
O=C(c1ccc(Nc2nc(C3CCN(C4CC4)CC3)n3cc[nH]c(=O)c23)cc1)N1CCOCC1 [Compound 21, 3-(1-cyclopropylpiperidin-4-yl)-1-((4-(morpholine-4-carbonyl)phenyl)amino)imidazo[1,5-a]pyrazin-8(7H)-one]		12	12
O=C1NCCn2c(-c3c(F)cccc3F)nc(Nc3cccc(C(=O)N4CCOCC4)c3)c21 [Compound 23, 3-(2,6-difluorophenyl)-1-((3-(morpholine-4-carbonyl)phenyl)amino)-6,7-dihydroimidazo[1,5-a]pyrazin-8(5H)-one]		29	50
CN1CCN(C(=O)Cn2cc(Nc3nc(-c4c(F)cccc4F)n4c3C(=O)NCC4)cn2)CC1 [Compound 25, 3-(2,6-difluorophenyl)-1-((1-(2-(4-methylpiperazin-1-yl)-2-oxoethyl)-1H-pyrazol-4-yl)amino)-6,7-dihydroimidazo[1,5-a]pyrazin-8(5H)-one]		39	5.1

Continued, values first:

IC50 [1] [nM]	IC50 [2] [nM]	IC50 [3] [nM]	Compound
66	0.4	0.1	O=C(c1ccc(Nc2nc(-c3c(F)cccc3Cl)n3cc[nH]c(=O)c23)cc1)N1CCOCC1 [Compound 3, 3-(2-chloro-6-fluorophenyl)-1-((4-(morpholine-4-carbonyl)phenyl)amino)imidazo[1,5-a]pyrazin-8(7H)-one]
175	2	0.8	Cn1cc(Nc2nc(-c3c(F)cccc3F)n3cc[nH]c(=O)c23)cn1 [Compound 4, 3-(2,6-difluorophenyl)-1-((1-methyl-1H-pyrazol-4-yl)amino)imidazo[1,5-a]pyrazin-8(7H)-one]
198	5.3	0.3	O=c1[nH]ccn2c(-c3c(F)cccc3F)nc(Nc3ccc(N4CCOCC4)cc3)c12 [Compound 6, 3-(2,6-difluorophenyl)-1-((4-morpholinophenyl)amino)imidazo[1,5-a]pyrazin-8(7H)-one]
122	4.4	0.4	O=C1NCCn2c(-c3c(F)cccc3F)nc(Nc3ccc(N4CCOCC4)cc3)c21 [Compound 10, 3-(2,6-difluorophenyl)-1-((4-morpholinophenyl)amino)-6,7-dihydroimidazo[1,5-a]pyrazin-8(5H)-one]
242	1.4	4	CS(=O)(=O)c1ccc(Nc2nc(-c3c(F)cccc3F)n3cc[nH]c(=O)c23)cc1 [Compound 11, 3-(2,6-difluorophenyl)-1-((4-(methylsulfonyl)phenyl)amino)imidazo[1,5-a]pyrazin-8(7H)-one]
	3.9	3.3	O=C(c1cccc(Nc2nc(-c3c(F)cccc3F)n3cc[nH]c(=O)c23)c1)N1CCOCC1 [Compound 22, 3-(2,6-difluorophenyl)-1-((3-(morpholine-4-carbonyl)phenyl)amino)imidazo[1,5-a]pyrazin-8(7H)-one]
	42	3.2	O=C1NCCn2c(-c3c(F)cccc3F)nc(Nc3cnn(CC(=O)N4CCOCC4)c3)c21 [Compound 24, 3-(2,6-difluorophenyl)-1-((1-(2-morpholino-2-oxoethyl)-1H-pyrazol-4-yl)amino)-6,7-dihydroimidazo[1,5-a]pyrazin-8(5H)-one]
